Reference: patent US8802597B2, “Herbicidal pyrimidines” (E I du Pont de Nemours and Company, priority 2003, dated 2014)
Where two headings read alike, the source gives them in different places.

Legend:
Assay in all cases: Test C pre/postemergence
Assay type in all cases: in vivo
[1] = system: bermudagrass (Cynodon dactylon); conditions: Cynodon dactylon; for pest or weed control at 31 g/ha: 31 g ai/ha; for pest or weed control at 62 g/ha: 62 g ai/ha; for pest or weed control at 125 g/ha: 125 g ai/ha; for pest or weed control at 250 g/ha: 250 g ai/ha
How it was run: (§1)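 Rating scale 0–100: 0 means no effect, 100 complete control; taken visually 12 to 14 days post-treatment versus controls. Pre- and postemergence greenhouse applications, postemergence at 1- to 4-leaf stage, non-phytotoxic solvent with surfactant as carrier.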

[2] = system: lambsquarters (Chenopodium album); conditions: Chenopodium album; for pest or weed control at 31 g/ha: 31 g ai/ha; for pest or weed control at 62 g/ha: 62 g ai/ha; for pest or weed control at 125 g/ha: 125 g ai/ha; for pest or weed control at 250 g/ha: 250 g ai/ha
How it was run: as §1

[3] = system: goosegrass (Eleusine indica); conditions: Eleusine indica; for pest or weed control at 31 g/ha: 31 g ai/ha; for pest or weed control at 62 g/ha: 62 g ai/ha; for pest or weed control at 125 g/ha: 125 g ai/ha; for pest or weed control at 250 g/ha: 250 g ai/ha
How it was run: as §1

[4] = system: corn (Zea mays); conditions: Zea mays; for Corn plant response rating (crop injury, 0 = no effect, 100 = complete kill) at 31 g/ha: 31 g ai/ha; for Corn plant response rating (crop injury, 0 = no effect, 100 = complete kill) at 62 g/ha: 62 g ai/ha; for Corn plant response rating (crop injury, 0 = no effect, 100 = complete kill) at 125 g/ha: 125 g ai/ha; for Corn plant response rating (crop injury, 0 = no effect, 100 = complete kill) at 250 g/ha: 250 g ai/ha
How it was run: as §1

[5] = system: crabgrass (Digitaria sanguinalis); conditions: Digitaria sanguinalis; for pest or weed control at 31 g/ha: 31 g ai/ha; for pest or weed control at 62 g/ha: 62 g ai/ha; for pest or weed control at 125 g/ha: 125 g ai/ha; for pest or weed control at 250 g/ha: 250 g ai/ha
How it was run: as §1

[6] = system: velvetleaf (Abutilon theophrasti); conditions: Abutilon theophrasti; for pest or weed control at 31 g/ha: 31 g ai/ha; for pest or weed control at 62 g/ha: 62 g ai/ha; for pest or weed control at 125 g/ha: 125 g ai/ha; for pest or weed control at 250 g/ha: 250 g ai/ha
How it was run: as §1

[7] = system: eastern black nightshade (Solanum ptycanthum); conditions: Solanum, pre-emergence, Preemergence, read-out: Plant response rating, Nightshade
How it was run: as §1

[8] = system: cocklebur (Xanthium strumarium); conditions: Xanthium strumarium; for pest or weed control at 31 g/ha: 31 g ai/ha; for pest or weed control at 62 g/ha: 62 g ai/ha; for pest or weed control at 125 g/ha: 125 g ai/ha; for pest or weed control at 250 g/ha: 250 g ai/ha
How it was run: as §1

[9] = post-emergence, Postemergence, scale 0 to 100 (0 no effect, 100 complete control), read-out: Bermudagrass plant response rating
[10] = pre-emergence, Preemergence, scale 0 to 100, 0 no effect, 100 complete control, read-out: Plant response rating, Bermudagrass
[11] = pre-emergence, Preemergence, scale 0 to 100, read-out: Plant response rating, Bermudagrass
[12] = post-emergence, Postemergence, scale 0 to 100 (0 no effect, 100 complete control), read-out: Lambsquarters plant response rating
[13] = pre-emergence, Preemergence, scale 0 to 100, 0 no effect, 100 complete control, read-out: Plant response rating, Lambsquarters
[14] = pre-emergence, Preemergence, scale 0 to 100, read-out: Plant response rating, Lambsquarters
[15] = post-emergence, Postemergence, scale 0 to 100 (0 no effect, 100 complete control), read-out: Goosegrass plant response rating
[16] = pre-emergence, Preemergence, scale 0 to 100, 0 no effect, 100 complete control, read-out: Plant response rating, Goosegrass
[17] = pre-emergence, Preemergence, scale 0 to 100, read-out: Plant response rating, Goosegrass
[18] = post-emergence, Postemergence, scale 0 to 100 (0 no effect, 100 complete control), read-out: Corn plant response rating
[19] = pre-emergence, Preemergence, scale 0 to 100, 0 no effect, 100 complete control, read-out: Plant response rating, Corn
[20] = post-emergence, Postemergence, scale 0 to 100 (0 no effect, 100 complete control), read-out: Crabgrass plant response rating
[21] = pre-emergence, Preemergence, scale 0 to 100, 0 no effect, 100 complete control, read-out: Plant response rating, Crabgrass
[22] = pre-emergence, Preemergence, scale 0 to 100, read-out: Plant response rating, Crabgrass
[23] = post-emergence, Postemergence, scale 0 to 100 (0 no effect, 100 complete control), read-out: Velvetleaf plant response rating
[24] = pre-emergence, Preemergence, scale 0 to 100, 0 no effect, 100 complete control, read-out: Plant response rating, Velvetleaf
[25] = pre-emergence, Preemergence, scale 0 to 100, read-out: Plant response rating, Velvetleaf
[26] = post-emergence, Postemergence, scale 0 to 100 (0 no effect, 100 complete control), read-out: Cocklebur plant response rating
[27] = pre-emergence, Preemergence, scale 0 to 100, 0 no effect, 100 complete control, read-out: Plant response rating, Cocklebur
[28] = pre-emergence, Preemergence, scale 0 to 100, read-out: Plant response rating, Cocklebur

With CCOC(=O)c1nc(C2CC2)nc(N)c1F [Compound 30] the pest or weed control at 31 g/ha ([1]; post-emergence, Postemergence, read-out: Plant response rating (scale of 0 to 100), Bermudagrass) was 0%, the pest or weed control at 62 g/ha [1, 9] was 0% and the pest or weed control at 125 g/ha [1, 9] was 5%. The pest or weed control at 250 g/ha ([1]; post-emergence, Postemergence, scale 0 to 100, read-out: Plant response rating, Bermudagrass) was 5%, the pest or weed control at 31 g/ha [1, 10] was 0% and the pest or weed control at 62 g/ha [1, 10] was 0%. The pest or weed control at 125 g/ha [1, 11] was 0%, the pest or weed control at 250 g/ha [1, 11] was 0% and the pest or weed control at 31 g/ha ([2]; post-emergence, Postemergence, read-out: Plant response rating (scale of 0 to 100), Lambsquarters) was 50%. It also gave a pest or weed control at 62 g/ha [2, 12] of 60%, a pest or weed control at 125 g/ha [2, 12] of 80% and a pest or weed control at 250 g/ha ([2]; post-emergence, Postemergence, scale 0 to 100, read-out: Plant response rating, Lambsquarters) of 90%. The pest or weed control at 31 g/ha [2, 13] was 0%, the pest or weed control at 62 g/ha [2, 13] was 80% and the pest or weed control at 125 g/ha [2, 14] was 85%. For the same compound, the pest or weed control at 250 g/ha [2, 14] was 90%, the pest or weed control at 31 g/ha ([3]; post-emergence, Postemergence, read-out: Plant response rating (scale of 0 to 100), Goosegrass) was 0% and the pest or weed control at 62 g/ha [3, 15] was 0%. For the same compound, the pest or weed control at 125 g/ha [3, 15] was 0%, the pest or weed control at 250 g/ha ([3]; post-emergence, Postemergence, scale 0 to 100, read-out: Plant response rating, Goosegrass) was 0% and the pest or weed control at 31 g/ha [3, 16] was 0%. It also gave a pest or weed control at 62 g/ha [3, 16] of 30%, a pest or weed control at 125 g/ha [3, 17] of 35% and a pest or weed control at 250 g/ha [3, 17] of 50%. The Corn plant response rating (crop injury, 0 = no effect, 100 = complete kill) at 31 g/ha ([4]; post-emergence, Postemergence, read-out: Plant response rating (scale of 0 to 100), Corn) was 0%, the Corn plant response rating (crop injury, 0 = no effect, 100 = complete kill) at 62 g/ha [4, 18] was 0% and the Corn plant response rating (crop injury, 0 = no effect, 100 = complete kill) at 125 g/ha [4, 18] was 0%. For the same compound, the Corn plant response rating (crop injury, 0 = no effect, 100 = complete kill) at 250 g/ha ([4]; post-emergence, Postemergence, scale 0 to 100) was 50%, the Corn plant response rating (crop injury, 0 = no effect, 100 = complete kill) at 31 g/ha [4, 19] was 0% and the Corn plant response rating (crop injury, 0 = no effect, 100 = complete kill) at 62 g/ha [4, 19] was 0%. It also gave a Corn plant response rating (crop injury, 0 = no effect, 100 = complete kill) at 125 g/ha ([4]; pre-emergence, Preemergence, scale 0 to 100, read-out: Plant response rating, Corn) of 0%, a Corn plant response rating (crop injury, 0 = no effect, 100 = complete kill) at 250 g/ha ([4]; pre-emergence, Preemergence, scale 0 to 100) of 0% and a pest or weed control at 31 g/ha ([5]; post-emergence, Postemergence, read-out: Plant response rating (scale of 0 to 100), Crabgrass) of 0%. For the same compound, the pest or weed control at 62 g/ha [5, 20] was 0%, the pest or weed control at 125 g/ha [5, 20] was 5% and the pest or weed control at 250 g/ha ([5]; post-emergence, Postemergence, scale 0 to 100, read-out: Plant response rating, Crabgrass) was 50%. For the same compound, the pest or weed control at 31 g/ha [5, 21] was 0%, the pest or weed control at 62 g/ha [5, 21] was 0% and the pest or weed control at 125 g/ha [5, 22] was 70%. The pest or weed control at 250 g/ha [5, 22] was 85%, the pest or weed control at 31 g/ha ([6]; post-emergence, Postemergence, read-out: Plant response rating (scale of 0 to 100), Velvetleaf) was 10% and the pest or weed control at 62 g/ha [6, 23] was 10%. It also gave a pest or weed control at 125 g/ha [6, 23] of 60%, a pest or weed control at 250 g/ha ([6]; post-emergence, Postemergence, scale 0 to 100, read-out: Plant response rating, Velvetleaf) of 60% and a pest or weed control at 31 g/ha [6, 24] of 0%. It also gave a pest or weed control at 62 g/ha [6, 24] of 10%, a pest or weed control at 125 g/ha [6, 25] of 15% and a pest or weed control at 250 g/ha [6, 25] of 50%. The pest or weed control at 31 g/ha ([7]; 31 g ai/ha, scale 0 to 100, 0 no effect, 100 complete control) was 50%, the pest or weed control at 62 g/ha ([7]; 62 g ai/ha, scale 0 to 100, 0 no effect, 100 complete control) was 80% and the pest or weed control at 125 g/ha ([7]; 125 g ai/ha, scale 0 to 100) was 100%. For the same compound, the pest or weed control at 250 g/ha ([7]; 250 g ai/ha, scale 0 to 100) was 100%, the pest or weed control at 31 g/ha ([8]; post-emergence, Postemergence, read-out: Plant response rating (scale of 0 to 100), Cocklebur) was 90% and the pest or weed control at 62 g/ha [8, 26] was 95%. The pest or weed control at 125 g/ha [8, 26] was 100%, the pest or weed control at 250 g/ha ([8]; post-emergence, Postemergence, scale 0 to 100, read-out: Plant response rating, Cocklebur) was 100% and the pest or weed control at 31 g/ha [8, 27] was 0%. For the same compound, the pest or weed control at 62 g/ha [8, 27] was 60%, the pest or weed control at 125 g/ha [8, 28] was 85% and the pest or weed control at 250 g/ha [8, 28] was 90%.
